What follows are molecules tested against T1, kinase-domain human PKCι (Homo sapiens, UniProt P41743) (assay: PKCι IC50 IMAP fluorescence polarisation assay, kinase-domain enzyme). Details: kinase domain PKCi at 2 μM ATP; read-out: IC50 in IMAP assay against kinase domain PKCi.
T1 construct: Recombinant, kinase-domain human PKCι is expressed and purified in-house; made in house
T1 sequence (P41743 254-522 limits assumed): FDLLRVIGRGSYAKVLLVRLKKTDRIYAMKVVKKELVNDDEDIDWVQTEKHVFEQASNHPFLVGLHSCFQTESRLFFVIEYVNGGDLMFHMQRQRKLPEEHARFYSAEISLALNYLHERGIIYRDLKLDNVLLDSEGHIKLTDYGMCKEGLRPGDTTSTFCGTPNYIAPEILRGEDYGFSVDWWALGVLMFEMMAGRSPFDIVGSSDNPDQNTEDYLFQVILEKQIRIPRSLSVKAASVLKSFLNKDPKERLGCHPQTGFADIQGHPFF
Type: biochemical

| IC50 | Compound |
| --- | --- |
| 1000 to 10000 nM | c1cnc2sc3c(N4CCCNCC4)nc(-c4ccncc4)nc3c2c1 [compound 377, 4-[1,4]Diazepan-1-yl-2-pyridin-4-yl-pyrido[3′,2′:4,5]thieno[3,2-d]pyrimidine] |
| 1000 to 10000 nM | Cc1cc(C)c2c(n1)sc1c(NC[C@@H](C)N)nc(-c3ccncc3)nc12 [compound 383, (R)-N*1*-(7,9-Dimethyl-2-pyridin-4-yl-pyrido[3′,2′:4,5]thieno[3,2-d]pyrimidin-4-yl)-propane-1,2-diamine] |
| 1000 to 10000 nM | Cc1cc(C)c2c(n1)sc1c(N3CCCNCC3)nc(-c3ccncc3)nc12 [compound 381, 4-[1,4]Diazepan-1-yl-7,9-dimethyl-2-pyridin-4-yl-pyrido[3′,2′:4,5]thieno[3,2-d]pyrimidine] |
| 1000 to 10000 nM | Clc1cccc2sc3c(N[C@@H]4CCNC4)nc(-c4ccncc4)nc3c12 [compound 384, (9-Chloro-2-pyridin-4-yl-benzo[4,5]thieno[3,2-d]pyrimidin-4-yl)-(R)-pyrrolidin-3-yl-amine] |
| 100 to 1000 nM | N[C@H](CNc1nc(-c2ccncc2)nc2c1sc1cccc(Cl)c12)Cc1ccccc1 [compound 372, (S)-N*1*-(9-Chloro-2-pyridin-4-yl-benzo[4,5]thieno[3,2-d]pyrimidin-4-yl)-3-phenyl-propane-1,2-diamine] |
| 100 to 1000 nM | Cc1csc2c(N3CCNCC3)nc(-c3ccncc3)nc12 [compound 363, 7-Methyl-4-piperazin-1-yl-2-pyridin-4-yl-thieno[3,2-d]pyrimidine] |
| 10000 to 40000 nM | C[C@H](N)CNc1nc(-c2ccncc2)nc2cc(-c3ccccc3)sc12 [compound 367, (S)-N*1*-(6-Phenyl-2-pyridin-4-yl-thieno[3,2-d]pyrimidin-4-yl)-propane-1,2-diamine] |
| 1000 to 10000 nM | Cc1csc2c(O[C@@H]3CCNC3)nc(-c3ccncc3)nc12 [compound 484, 7-Methyl-2-pyridin-4-yl-4-((R)-pyrrolidin-3-yloxy)-thieno[3,2-d]pyrimidine] |
| 100 to 1000 nM | NCCNc1nc(-c2ccncc2)nc2c1sc1cccc(Cl)c12 [compound 386, N*1*-(9-Chloro-2-pyridin-4-yl-benzo[4,5]thieno[3,2-d]pyrimidin-4-yl)-ethane-1,2-diamine] |
| 100 to 1000 nM | C[C@@H](N)CNc1nc(-c2ccncc2)nc2c1sc1cccc(Cl)c12 [compound 374, (R)-N*1*-(9-Chloro-2-pyridin-4-yl-benzo[4,5]thieno[3,2-d]pyrimidin-4-yl)-propane-1,2-diamine] |

Same assay, conditions: kinase domain PKCi at 2 μM ATP; read-out: IC50 in IMAP assay against kinase domain PKCi (Activity)

| IC50 | Compound |
| --- | --- |
| 1000 to 10000 nM | CC(C)Cc1csc2nc(-c3ccncc3)nc(NC[C@@H](C)N)c12 [compound 30, (R)-N*1*-(5-Isobutyl-2-pyridin-4-yl-thieno[2,3-d]pyrimidin-4-yl)-propane-1,2-diamine] |
| 100 to 1000 nM | Cc1n[nH]c(C)c1-c1nc(NCCN)c2c3c(sc2n1)CCCC3 [compound 182, N*1*-[2-(3,5-Dimethyl-1H-pyrazol-4-yl)-5,6,7,8-tetrahydro-benzo[4,5]thieno[2,3-d]pyrimidin-4-yl]-ethane-1,2-diamine] |
| 1000 to 10000 nM | CC[C@H](N)COc1nc(-c2ccncc2)nc2sc3c(c12)CCCC3 [compound 150, (S)-1-(2-Pyridin-4-yl-5,6,7,8-tetrahydro-benzo[4,5]thieno[2,3-d]pyrimidin-4-yloxymethyl)-propylamine] |
| 1000 to 10000 nM | C[C@@H](N)CNc1nc(-c2ccncc2F)nc2sc3c(c12)CCCC3 [compound 100, (R)-N*1*-[2-(3-Fluoro-pyridin-4-yl)-5,6,7,8-tetrahydro-benzo[4,5]thieno[2,3-d]pyrimidin-4-yl]-propane-1,2-diamine] |
| 1000 to 10000 nM | C[C@@H](N)CNc1nc(-c2ccncc2)nc2sc3c(c12)CCCCCC3 [compound 26, (R)-N*1*-(2-Pyridin-4-yl-5,6,7,8,9, 10-hexahydro-11-thia-1,3-diaza-cycloocta[a]inden-4-yl)-propane-1,2-diamine] |
| 100 to 1000 nM | Cc1csc2nc(-c3ccncc3)nc(N3CCCNCC3)c12 [compound 95, 4-[1,4]Diazepan-1-yl-5-methyl-2-pyridin-4-yl-thieno[2,3-d]pyrimidine] |
| 100 to 1000 nM | C[C@@H](N)CNc1nc(-c2ccncc2)nc2sc3c(c12)CCCC3 [compound 2, (R)-N*1*-(2-Pyridin-4-yl-5,6,7,8-tetrahydro-benzo[4,5]thieno[2,3-d]pyrimidin-4-yl)-propane-1,2-diamine] |
| < 100 nM | Cc1csc2nc(-c3ccncc3)nc(N3CCNCC3)c12 [compound 94, 5-Methyl-4-piperazin-1-yl-2-pyridin-4-yl-thieno[2,3-d]pyrimidine] |
| 1000 to 10000 nM | CC(C)c1cc2c(NC[C@@H](N)Cc3ccccc3)nc(-c3ccncc3)nc2s1 [compound 75, (S)-N*1*-(6-Isopropyl-2-pyridin-4-yl-thieno[2,3-d]pyrimidin-4-yl)-3-phenyl-propane-1,2-diamine] |
| 100 to 1000 nM | N[C@H](CNc1nc(-c2cn[nH]c2)nc2sc3c(c12)CCCC3)Cc1ccccc1 [compound 183, (S)-3-Phenyl-N*1*-[2-(1H-pyrazol-4-yl)-5,6,7,8-tetrahydro-benzo[4,5]thieno[2,3-d]pyrimidin-4-yl]-propane-1,2-diamine] |
| 1000 to 10000 nM | N[C@H](COc1nc(-c2ccncc2)nc2sc3c(c12)CCCC3)c1ccccc1 [compound 155, (S)-1-Phenyl-2-(2-pyridin-4-yl-5,6,7,8-tetrahydro-benzo[4,5]thieno[2,3-d]pyrimidin-4-yloxy)-ethylamine] |
| 10000 to 40000 nM | Clc1ccc(CN2CCN(c3nc(-c4ccncc4)nc4sc5c(c34)CCCC5)CC2)cc1 [compound 122, 4-[4-(4-Chloro-benzyl)-piperazin-1-yl]-2-pyridin-4-yl-5,6,7,8-tetrahydro-benzo[4,5]thieno[2,3-d]pyrimidine] |
| 100 to 1000 nM | Cc1n[nH]c(C)c1-c1nc(N2CCNCC2)c2c3c(sc2n1)CCCC3 [compound 190, 2-(3,5-Dimethyl-1H-pyrazol-4-yl)-4-piperazin-1-yl-5,6,7,8-tetrahydro-benzo[4,5]thieno[2,3-d]pyrimidine] |
| 1000 to 10000 nM | C[C@@H](N)CNc1nc(-c2cn[nH]c2)nc2sc3c(c12)CCCC3 [compound 188, (R)-N*1*-[2-(1H-Pyrazol-4-yl)-5,6,7,8-tetrahydro-benzo[4,5]thieno[2,3-d]pyrimidin-4-yl]-propane-1,2-diamine] |
| < 100 nM | C[C@H](N)CNc1nc(-c2ccncc2)nc2sc3c(c12)CCCC3 [compound 5, (S)-N*1*-(2-Pyridin-4-yl-5,6,7,8-tetrahydro-benzo[4,5]thieno[2,3-d]pyrimidin-4-yl)-propane-1,2-diamine] |
| 100 to 1000 nM | C[C@H](N)CNc1nc(-c2ccncc2)nc2sc3c(c12)CCCCC3 [compound 88, (S)-N*1*-(2-Pyridin-4-yl-6,7,8,9-tetrahydro-5H-10-thia-1,3-diaza-benzo[a]azulen-4-yl)-propane-1,2-diamine] |
| 10000 to 40000 nM | N[C@H](COc1nc(-c2ccncc2)nc2sc3c(c12)CCCC3)Cc1ccc(F)cc1 [compound 162, (S)-1-(4-Fluoro-benzyl)-2-(2-pyridin-4-yl-5,6,7,8-tetrahydro-benzo[4,5]thieno[2,3-d]pyrimidin-4-yloxy)-ethylamine] |
| 1000 to 10000 nM | c1cc(CN2CCN(c3nc(-c4ccncc4)nc4sc5c(c34)CCCC5)CC2)ccn1 [compound 118, 2-Pyridin-4-yl-4-(4-pyridin-4-ylmethyl-piperazin-1-yl)-5,6,7,8-tetrahydro-benzo[4,5]thieno[2,3-d]pyrimidine] |

Source: patent publication US10183950B2, “Thienopyrimidine inhibitors of atypical protein kinase C” (Cancer Research Technology Limited, priority 2011, dated 2019)
